# Measurements taken from PubChem BioAssay (NCI).
#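 Results reflect a 48-hour exposure of cells in 96-well plates to compound at five concentrations. At the GI50, growth is halved. TGI: concentration producing complete growth inhibition.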
# Experiments:
# Test in all cases: growth of human tumour cells (NCI), 48 h
# [1] = system: HCC-2998 colon
# [2] = system: MDA-MB-231 breast
# [3] = system: DU-145 prostate
# [4] = system: HS 578T breast
# [5] = system: HCT-116 colon
# [6] = system: T-47D breast
# [7] = system: SN12C renal
# [8] = system: NCI/ADR-RES ovarian
# [9] = system: SK-MEL-2 melanoma
# [10] = system: KM12 colon
# [11] = system: HT29 colon
# [12] = system: NCI-H460 lung
# [13] = system: TK-10 renal
# [14] = system: MALME-3M melanoma
# [15] = system: BT-549 breast
# [16] = system: U251 CNS
# [17] = system: OVCAR-3 ovarian
# [18] = system: EKVX NSCLC
# [19] = system: HOP-92 NSCLC
# [20] = system: OVCAR-4 ovarian
# [21] = system: PC-3 prostate
# [22] = system: A498 renal
# [23] = system: SF-295 CNS
# [24] = system: HOP-62 NSCLC
# [25] = system: OVCAR-5 ovarian
# [26] = system: CCRF-CEM leukemia
# [27] = system: K-562 leukemia
# [28] = system: SNB-75 CNS
# [29] = system: UACC-257 melanoma
# [30] = system: IGROV1 ovarian
# [31] = system: ACHN renal
# [32] = system: NCI-H522 lung
# [33] = system: SF-539 CNS
# [34] = system: RXF 393 renal
# [35] = system: M14 melanoma
# [36] = system: SK-OV-3 ovarian
# [37] = system: SF-268 CNS
# [38] = system: MCF7 breast
# [39] = system: SK-MEL-5 melanoma
# [40] = system: SK-MEL-28 melanoma
# [41] = system: 786-0 renal
# [42] = system: UACC-62 melanoma
# [43] = system: NCI-H23 lung
# [44] = system: MDA-MB-435
# [45] = system: OVCAR-8 ovarian
# [46] = system: A549 NSCLC
# [47] = system: HCT-15 colon
# [48] = system: RPMI-8226 leukemia
# [49] = system: NCI-H226 lung
# [50] = system: MOLT-4 leukemia
# [51] = system: LOX IMVI melanoma
# [52] = system: SNB-19 CNS
# [53] = system: HL-60(TB) leukemia
# [54] = system: SW-620 colon
# [55] = system: COLO 205 colon
# [56] = system: CAKI-1 renal
# [57] = system: UO-31 renal
smiles,measurement,setting,value
O=C(COc1cccc(/C=C2\Oc3ccc4ccccc4c3C2=O)c1)c1ccc(Cl)cc1,GI50,[1],> 100 µM
same,TGI,[1],> 100 µM
same,GI50,[2],43.5 µM
same,TGI,[2],> 100 µM
same,GI50,[3],39.6 µM
same,TGI,[3],> 100 µM
same,GI50,[4],50 µM
same,TGI,[4],> 100 µM
same,GI50,[5],2.97 µM
same,TGI,[5],10.5 µM
same,GI50,[6],15.3 µM
same,TGI,[6],52.4 µM
same,GI50,[7],16.8 µM
same,TGI,[7],37.5 µM
same,GI50,[8],> 100 µM
same,TGI,[8],> 100 µM
same,GI50,[9],> 100 µM
same,TGI,[9],> 100 µM
same,GI50,[10],30.2 µM
same,TGI,[10],> 100 µM
same,GI50,[11],> 100 µM
same,TGI,[11],> 100 µM
same,GI50,[12],> 100 µM
same,TGI,[12],> 100 µM
same,GI50,[13],> 100 µM
same,TGI,[13],> 100 µM
same,GI50,[14],22.4 µM
same,TGI,[14],> 100 µM
same,GI50,[15],20.5 µM
same,TGI,[15],61.7 µM
same,GI50,[16],27.2 µM
same,TGI,[16],> 100 µM
same,GI50,[17],19.8 µM
same,TGI,[17],48.6 µM
same,GI50,[18],> 100 µM
same,TGI,[18],> 100 µM
same,GI50,[19],> 100 µM
same,TGI,[19],> 100 µM
same,GI50,[20],5.56 µM
same,TGI,[20],> 100 µM
same,GI50,[21],52.1 µM
same,TGI,[21],> 100 µM
same,GI50,[22],> 100 µM
same,TGI,[22],> 100 µM
same,GI50,[23],> 100 µM
same,TGI,[23],> 100 µM
same,GI50,[24],7.09 µM
same,TGI,[24],32.4 µM
same,GI50,[25],> 100 µM
same,TGI,[25],> 100 µM
same,GI50,[26],2.92 µM
same,TGI,[26],8.39 µM
same,GI50,[27],10.8 µM
same,TGI,[27],25.5 µM
same,GI50,[28],29.4 µM
same,TGI,[28],99.4 µM
same,GI50,[29],> 100 µM
same,TGI,[29],> 100 µM
same,GI50,[30],0.246 µM
same,TGI,[30],9.14 µM
same,GI50,[31],> 100 µM
same,TGI,[31],> 100 µM
same,GI50,[32],6.3 µM
same,TGI,[32],23.2 µM
same,GI50,[33],> 100 µM
same,TGI,[33],> 100 µM
same,GI50,[34],25 µM
same,TGI,[34],61.6 µM
same,GI50,[35],18.1 µM
same,TGI,[35],43 µM
same,GI50,[36],> 100 µM
same,TGI,[36],> 100 µM
same,GI50,[37],23.1 µM
same,TGI,[37],79.5 µM
same,GI50,[38],10.7 µM
same,TGI,[38],22.6 µM
same,GI50,[39],79.2 µM
same,TGI,[39],> 100 µM
same,GI50,[40],> 100 µM
same,TGI,[40],> 100 µM
same,GI50,[41],4.54 µM
same,TGI,[41],19 µM
same,GI50,[42],81.9 µM
same,TGI,[42],> 100 µM
same,GI50,[43],30.5 µM
same,TGI,[43],> 100 µM
same,GI50,[44],51 µM
same,TGI,[44],> 100 µM
same,GI50,[45],15.4 µM
same,TGI,[45],41.9 µM
same,GI50,[46],> 100 µM
same,TGI,[46],> 100 µM
same,GI50,[47],33 µM
same,TGI,[47],> 100 µM
same,GI50,[48],1.66 µM
same,TGI,[48],6.62 µM
same,GI50,[49],70.6 µM
same,TGI,[49],> 100 µM
same,GI50,[50],3.13 µM
same,TGI,[50],11.1 µM
same,GI50,[51],8.7 µM
same,TGI,[51],21.9 µM
same,GI50,[52],> 100 µM
same,TGI,[52],> 100 µM
same,GI50,[53],16.1 µM
same,TGI,[53],90.9 µM
same,GI50,[54],11.7 µM
same,TGI,[54],88.3 µM
same,GI50,[55],33.6 µM
same,TGI,[55],> 100 µM
same,GI50,[56],> 100 µM
same,TGI,[56],> 100 µM
same,GI50,[57],50.2 µM
same,TGI,[57],> 100 µM
